Assay results published in patent US20220009894A1, “1,2,3,4-TETRAHYDROQUINOXALINE DERIVATIVE, PREPARATION METHOD THEREFOR AND APPLICATION THEREOF” (Abbisko Therapeutics Co., Ltd., priority 2019, published 2022).

Key:
RORγt = biological target: T1, RORγt (Homo sapiens, UniProt P51449); test: RORγt cellular reporter gene detection assay; type: cell-based; settings: 24 hrs; for EC50: HEK 293 cells co-transfected with pFN26A-RORγt-LBD and pG14.35, in presence of antagonist Ursolic acid, top concentration 50 μM; for Cellular Reporter Assay Amax: upper activation limit, HEK 293 cells, in presence of antagonist Ursolic acid;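 as to Cellular Reporter Assay Amax: Ursolic Acid added as 5 µL of 20 µM medium per well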
T1 construct: The plasmid of pFN26A-RORγt-LBD and pG14.35 (Promega, Cat. No. E1370) were co-transfected into HEK 293 cells; expressed in transfected cells; host or cells: HEK 293 cells (Cat. No. GNHu18)
T1 sequence (P51449 269-508 limits assumed): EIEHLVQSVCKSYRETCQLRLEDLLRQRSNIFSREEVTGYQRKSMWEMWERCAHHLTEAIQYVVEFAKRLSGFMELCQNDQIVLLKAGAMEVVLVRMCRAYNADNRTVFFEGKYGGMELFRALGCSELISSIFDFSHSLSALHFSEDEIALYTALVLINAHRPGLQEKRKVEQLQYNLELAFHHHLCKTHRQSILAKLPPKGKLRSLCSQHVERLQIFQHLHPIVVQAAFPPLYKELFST
How it was run: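 HEK293 cells co-transfected with RORγt-LBD and luciferase reporter plasmids, treated with Ursolic acid antagonist plus compound in 4-fold dilutions from 50 μM for 24 h at 37° C. Firefly and Renilla luminescence read; EC50 and Amax from four-parameter fit.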

RORγt-LBD = biological target: T2, RORγt-LBD (Homo sapiens, UniProt P51449); test: Time-resolved fluorescence resonance energy-transfer assay (TR-FRET), co-activator peptide recruitment; type: biochemical; parameters: TR-FRET Biochemical Amax: unit not given here; settings: for EC50: His-RORγt-LBD 30 nM, SRC peptide 500 nM, agonistic activity, averages of one or more measurements, read-out: TR-FRET Biochemical EC50/; for TR-FRET Biochemical Amax: upper activation limit, His-RORγt-LBD, SRC peptide
T2 sequence (P51449 269-508 limits assumed): T1 sequence (P51449 269-508 limits assumed)
How it was run: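 Eu-anti-His-labelled His-RORγt-LBD (30 nM final) recruits biotin-SRC co-activator peptide (500 nM final), detected via APC-streptavidin (5 nM) and Eu-anti-His (0.25 nM). Buffer was Tris/KCl/EDTA at pH 7.0 with 0.01% Triton X-100 and 1 mM DTT. Compounds were tested at 7 points in 5-fold dilutions. Plates were incubated overnight at 4 °C then 1 h at RT, and agonism was read as the 665/615 nm ratio.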

| SMILES | EC50 (RORγt) [nM] | Cellular Reporter Assay Amax (RORγt) | EC50 (RORγt-LBD) [nM] | TR-FRET Biochemical Amax (RORγt-LBD) |
| --- | --- | --- | --- | --- |
| N#CC1(N2CCN3c4ccc(/C=C/c5c(Cl)cccc5C(F)(F)F)cc4N(S(=O)(=O)c4cccc(C(F)(F)F)c4)C[C@@H]3C2)CCC1 [Example 78, (S,E)-1-(8-(2-chloro-6-(trifluoro-methyl)styryl)-6-((3-(trifluoro-methyl)phenyl)sulfonyl)-1,2,4,4a,5,6-hexahydro-3H-pyra-zino[1,2-a]quinoxalin-3-yl)cyclo-butane-1-carbonitrile] | 822 | 2.4 | 5.2 | 0.67 |
| C/C(=C\c1ccc2c(c1)N(S(=O)(=O)c1cccc(C(F)(F)F)c1)C[C@@H]1CN(CC(C)(C)O)CCN21)c1c(F)cccc1Cl [Example 82, (S,E)-1-(8-(2-(2-chloro-6-fluorophenyl)prop-1-en-1-yl)-6-((3-(trifluoromethyl)phenyl)sulfonyl)-1,2,4,4a,5,6-hexahydro-3H-pyrazino[1,2-a]quinoxalin-3-yl)-2-methylpropan-2-ol] | 394 | 4.5 | 28.1 | 1.09 |
| CC(=O)N1CCN2c3ccc(/C=C/c4c(Cl)cccc4C(F)(F)F)cc3N(S(=O)(=O)c3cccc(OC(F)(F)F)c3)C[C@@H]2C1 [Example 84, (S,E)-1-(8-(2-chloro-6-(trifluoromethyl)styryl)-6-((3-(trifluoromethoxy)phenyl)sulfonyl)-1,2,4,4a,5,6-hexahydro-3H-pyrazino[1,2-a]quinoxalin-3-yl)ethan-1-one] | 1140 | 4.7 | 207 | 0.76 |
| NC(=S)N1CCN2c3ccc(-c4cc(F)cc(OC(F)F)c4)cc3N(S(=O)(=O)c3cccc(C(F)(F)F)c3)C[C@@H]2C1 [Example 64, (S)-8-(3-(difluoromethoxy)-5-fluorophenyl)-6-((3-(trifluoro-methyl)phenyl)sulfonyl)-1,2,4,4a,5,6-hexahydro-3H-pyrazino [1,2-a]quinoxaline-3-carbo-thioamide] | 563 | 2.7 | 47.8 | 0.80 |
| CN1c2ccc(C3CC(C)(C)OC(C)(C)C3)cc2N(S(=O)(=O)c2cccc(C(F)(F)F)c2)C[C@@H]1CCC(=O)O [Example 119, (S)-3-(1-methyl-6-(2,2,6,6-tetramethyltetrahydro-2H-pyran-4-yl)-4-((3-(trifluoromethyl)phenyl)sulfonyl)-1,2,3,4-tetrahydroquinoxalin-2-yl)propanoic acid] | 295 | 1.1 | 31.5 | 0.41 |
| C/C(=C\c1ccc2c(c1)N(S(=O)(=O)c1cccc(C(F)(F)F)c1)C[C@@H]1CN(S(N)(=O)=O)CCN21)c1c(F)cccc1Cl [Example 66, (R,E)-8-(2-(2-chloro-6-fluorophenyl)prop-1-en-1-yl)-6-((3-(trifluoromethyl)phenyl)sulfonyl)-1,2,4,4a,5,6-hexahydro-3H-pyrazino[1,2-a]quinoxaline-3-sulfonamide] | 523 | 5.6 | 33.6 | 0.99 |
| C/C(=C\c1ccc2c(c1)N(S(=O)(=O)c1cccc(C(F)(F)F)c1)C[C@@H]1CN(C(N)=O)CCN21)c1c(F)cccc1Cl [Example 62, (S,E)-8-(2-(2-chloro-6-fluoro-phenyl)prop-1-en-1-yl)-6-((3-(trifluoromethyl)phenyl)sulfo-nyl)-1,2,4,4a,5,6-hexahydro-3H-pyrazino[1,2-a]quinoxa-line-3-carboxamide] | 297 | 3.8 | 25.2 | 0.69 |
